Molecules are shown by their SMILES.

In the assay the target is Prothrombin (Homo sapiens, UniProt P00734). Nature of the assay: In vitro inhibitory activity against thrombin.
The term IC50 denotes the midpoint of a concentration-inhibition curve. High values mean lower potency, low ones higher potency. With `CC(=O)N[C@H](Cc1c[nH]c2ccccc12)C(=O)N[C@H](Cc1ccc(C(=N)N)cc1)P(=O)(O)c1ccccc1`, inhibition was half-maximal at 7.5 µM (IC50).

Molecule `N=C(N)c1ccc(C[C@@H](NC(=O)[C@@H](Cc2ccc3ccccc3c2)NC(=O)OCc2ccccc2)P(=O)(O)c2ccccc2)cc1` had an IC50 of 3.6 µM. In the case of `COc1ccc(C[C@@H](NC(=O)[C@@H](Cc2ccc3ccccc3c2)NC(=O)OCc2ccccc2)P(=O)(O)c2ccccc2)cc1` it was 70 µM. `N=C(N)c1ccc(C[C@@H](NC(=O)[C@H](N)Cc2ccc3ccccc3c2)P(=O)(O)c2ccccc2)cc1` gave an IC50 of 0.6 µM.

Source of the values: ChEMBL document CHEMBL1131790, “Structure-based design and synthesis of novel thrombin inhibitors based on phosphinic peptide mimetics” (Bioorg Med Chem Lett, 1999).
